This note sets out measurements from PMC4906375, “Contribution of Amphipathicity and Hydrophobicity to the Antimicrobial Activity and Cytotoxicity of β-Hairpin Peptides” (ACS Infectious Diseases, 2016).

One data set deals with HEK293 cells. Briefly: Cytotoxicity, Alamar Blue (resazurin) assay. The note with it: HEK293; highest concentration (300 μM) tested. It is filed as cell-based, human. On the procedure:
(§1) Cytotoxicity to HEK293 and HepG2 cells was determined using the Alamar Blue (resazurin) assay,[55],[56] with 24 h of incubation and either 1 or 10% serum concentration. Full assay details are included in the Supporting Information.
(§2) Cytotoxicity. Cytotoxicity to HEK293 and HepG2 cells was determined using the Alamar Blue (resazurin) assay,3, 4 For the assays supplemented with 1 % FBS as final concentration the cells were seeded one day prior to the assay (3,000 per 20 µL for HEK293 and 4,000 per 20 µL for HepG2) with DMEM + 2 % FBS. The compounds were prepared as described below, using DMEM with no FBS instead to give the final FBS concentration of 1 %.
(§3) The highest concentration the compounds were tested was 300 µg/mL. A dilution series of 1:3 fold steps in DMEM (GIBCOPInvitrogen, cat. no. 11995P073) + 10 % FBS was created (concentration range of 600 µg/mL – 0.28 µg/mL), and 20 µL of these 2x concentrated compound dilutions were added in duplicates to wells of a black wall, clear bottom 384Pwells cell culture plate. For the assays with 1 % FBS the compounds in 0 % FBS were added to the existing cell plates in 2 % FBS. 200 µM Tamoxifen (Sigma T5648) served as negative control and in addition a serial dilution of tamoxifen, starting at 200 µM (74 µg/mL), was included as a dose response control (1 in 2 dilution series for tamoxifen). For the assay with 10 % FBS, HepG2 cells were seeded at 5000 cells per well, in a volume of 20 µL in DMEM medium + 10 % of FBS and added to the 20 µL of compound solution (total volume of 40 µL), resulting in a final compound concentration range of 300 µg/mL to 0.14 µg/mL.
(§4) Cells were incubated together with the compounds for 20 h at 37 °C, 5 % CO2.
(§5) After the incubation, 5 µL of 100 µM (25 µg/mL) resazurin dissolved in PBS (final concentration was approximately 11 µM) was added to each well. The plates were then incubated for 3 h at 37 °C, 5 % CO2. The fluorescence intensity was read using the TECAN Infinite M1000 PRO with excitation/emission 560/590. The data was analysed by Graph Pad Prism software. Results are presented as the average percentage of control ± SD for each set of duplicate wells using the following equation: Cell survival % = (FISAMPLE – FINegative/FIUNTREATED –FINegative)*100. (100 µg/mL tamoxifen was set as 0 % survival, media
In general terms: Alamar Blue is a resazurin reagent that responds to reducing activity.

For another data set, the system named is HepG2 cells. Briefly: Cytotoxicity, Alamar Blue (resazurin) assay. Format: cell-based, human. The note with it: HepG2; highest concentration (300 μM) tested. On the procedure:
as §1, §2, §3, §4, §5

Regarding `CC[C@H](C)[C@H](NC(=O)[C@@H](NC(=O)[C@@H]1CCCN1C(=O)[C@@H](NC(=O)[C@@H]1CCCN1C(=O)[C@H](CCCCN)NC(=O)[C@H](CCCCN)NC(=O)[C@H](CO)NC(=O)CN)C(C)C)[C@@H](C)CC)C(=O)N[C@@H](Cc1ccc(O)cc1)C(=O)N[C@H]1CSSC[C@@H](C(=O)N[C@@H](CCC(N)=O)C(=O)N[C@@H](CCCNC(=N)N)C(=O)N[C@@H](CCSC)C(N)=O)NC(=O)[C@H](CCCCN)NC(=O)CNC(=O)[C@H]([C@@H](C)O)NC(=O)[C@H](CCCNC(=N)N)NC(=O)[C@H](CCCNC(=N)N)NC(=O)[C@H](CC(N)=O)NC1=O` [thanatin], the “cytotoxicity at the highest concentration tested” value in the data set with HEK293 cells and in the data set on HepG2 cells was “nontoxic” throughout.
